Measured values as given in PubChem BioAssay (NCI).
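These data come from cells grown in 96-well plates and exposed to compound for 48 hours at five concentrations. The concentration for full growth arrest is given as TGI.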

Key:
Test in all cases: growth of human tumour cells (NCI), 48 h
SNB-75 CNS = system: SNB-75 CNS
UACC-257 melanoma = system: UACC-257 melanoma
MCF7 breast = system: MCF7 breast
DU-145 prostate = system: DU-145 prostate
SW-620 colon = system: SW-620 colon
COLO 205 colon = system: COLO 205 colon
LOX IMVI melanoma = system: LOX IMVI melanoma
ACHN renal = system: ACHN renal
NCI-H522 lung = system: NCI-H522 lung
OVCAR-5 ovarian = system: OVCAR-5 ovarian

Row | SMILES | TGI (SNB-75 CNS) | TGI (UACC-257 melanoma) | TGI (MCF7 breast) | TGI (DU-145 prostate) | TGI (SW-620 colon) | TGI (COLO 205 colon) | TGI (LOX IMVI melanoma) | TGI (ACHN renal) | TGI (NCI-H522 lung) | TGI (OVCAR-5 ovarian)
1 | COc1ccc(NC(=S)Nc2cccc(C)n2)cc1 | > 100 µM | > 100 µM | > 100 µM | > 100 µM | > 100 µM | > 100 µM | > 100 µM | > 100 µM | – | –
2 | CCOC(=O)C1=C(O)c2c(OC)ccc(OC)c2C(=O)C1=O | > 100 µM | > 100 µM | – | – | > 100 µM | > 100 µM | > 100 µM | > 100 µM | > 100 µM | > 100 µM
3 | O=[N+]([O-])c1cccc2c1[nH]c1c(-c3ccccc3)nccc12 | 7.59 µM | 6.29 µM | > 24.8 µM | – | > 36.9 µM | 4.23 µM | 10.7 µM | – | 4.27 µM | > 100 µM
4 | O=C(Cn1c(-c2ccccc2)cc2ccccc21)N1CCOCC1 | – | > 100 µM | > 100 µM | > 100 µM | > 100 µM | > 100 µM | > 100 µM | > 100 µM | > 100 µM | > 100 µM
5 | CCOC(=O)c1sc2nc(SC)nc3c2c1NCN3c1ccccc1Cl | 64.9 µM | > 100 µM | – | > 100 µM | > 100 µM | > 100 µM | > 100 µM | > 100 µM | 52.7 µM | > 100 µM
6 | O=C1C[C@@]23CCC4(CC2=CCC[C@H]3O1)OCCO4 | – | > 100 µM | > 100 µM | > 100 µM | > 100 µM | > 100 µM | > 100 µM | > 100 µM | > 100 µM | > 100 µM
7 | CC(C)[C@H](NC(=O)OCc1ccccc1)C(=O)N[C@H](/C=C/C(=O)OC(C)(C)C)CO | – | > 100 µM | > 100 µM | > 100 µM | > 100 µM | > 100 µM | > 100 µM | > 100 µM | > 100 µM | > 100 µM
8 | CC(=O)CC(=O)N1CCOC1=O | > 10 µM | > 10 µM | > 10 µM | > 10 µM | > 10 µM | > 10 µM | > 10 µM | > 10 µM | – | > 10 µM
9 | Nc1nc2c(c(-c3ccc(F)cc3)n1)COC/C2=C\c1ccc(F)cc1 | 83.1 µM | > 100 µM | > 100 µM | > 100 µM | > 100 µM | > 100 µM | – | > 100 µM | 22.7 µM | > 100 µM
10 | C[C@@H](c1ccccc1)N(CC#N)[C@H]1CCC[C@]1(O)/C=C/c1ccc2c(c1)OCO2 | > 25 µM | > 25 µM | 11.5 µM | > 25 µM | – | > 25 µM | > 25 µM | 8.04 µM | > 25 µM | > 25 µM
11 | CCCCCNC(=O)OC1CCn2c1nc1c2C(=O)C(C)=C(N2CC2)C1=O (centres undefined) | 2.69 µM | 3.22 µM | 2.21 µM | 2.37 µM | – | 2.82 µM | 1.07 µM | 2.81 µM | 3.4 µM | 7.77 µM
12 | COc1ccc(-c2cc(-c3ccc(Nc4ccnc5cc(C(F)(F)F)ccc45)cc3)nc(N)c2C#N)c2ccccc12 | > 100 µM | – | > 100 µM | > 100 µM | > 100 µM | > 100 µM | > 100 µM | > 100 µM | – | > 100 µM
